This passage reports IC50 results from ChEMBL document CHEMBL1129422, “Syntheses and structure-activity relationships of the second-generation antitumor taxoids: exceptional activity against drug-resistant cancer cells” (J Med Chem, 1996).

Format in all cases: functional, cell-based
The subject of one assay is A121. In words: Concentration required to inhibit growth of human tumor A121 (ovarian) cell line.
For the next assay, the system named is A549. Put plainly: Concentration required to inhibit growth of human tumor A549 (NSCL) cell line.
Assay [1] relates to MCF7. Put plainly: Concentration required to inhibit growth of human tumor […] (breast) cell line.
The test system of the next assay is HT-29. Put plainly: Concentration required to inhibit growth of human tumor HT-29 (colon) cell line.
Assay [2] deals with MCF7. Put plainly: Concentration required to inhibit growth of human tumor MCF-7 (breast) cell line.

On to `CNC(=O)O[C@H]1C(=O)[C@@]2(C)[C@H]([C@H](OC(=O)c3ccccc3)[C@]3(O)C[C@H](OC(=O)[C@H](O)[C@H](C=C(C)C)NC(=O)OC(C)(C)C)C(C)=C1C3(C)C)[C@]1(OC(C)=O)CO[C@@H]1C[C@@H]2O`, for which the IC50 (as a rule, the concentration at which inhibition is half-maximal) in the assay on A121 was determined as 1.2 nM; with A549 it was 0.7 nM; in the assay on MCF7 [1] it was 20 nM; in the assay with HT-29, 1.2 nM; in the assay on MCF7 [2], 0.4 nM.

In the case of `CC(=O)O[C@@]12CO[C@@H]1C[C@H](O)[C@@]1(C)C(=O)[C@H](OC(=O)C3CC3)C3=C(C)[C@@H](OC(=O)[C@H](O)[C@H](CC(C)C)NC(=O)OC(C)(C)C)C[C@@](O)([C@@H](OC(=O)c4ccccc4)[C@H]21)C3(C)C`, the IC50 with A121 stood at 0.51 nM; with A549 it was 1.1 nM; in the assay with MCF7 [1], 4.3 nM; with HT-29, 0.78 nM; in the assay on MCF7 [2], 0.51 nM.

As to `CCCCCC(=O)O[C@H]1C(=O)[C@@]2(C)[C@H]([C@H](OC(=O)c3ccccc3)[C@]3(O)C[C@H](OC(=O)[C@H](O)[C@H](C=C(C)C)NC(=O)OC(C)(C)C)C(C)=C1C3(C)C)[C@]1(OC(C)=O)CO[C@@H]1C[C@@H]2O`, the IC50 in the assay on A121 was 0.5 nM; with A549 it was 0.57 nM; with MCF7 [1], 17.3 nM; in the assay on HT-29, 0.9 nM; with MCF7 [2], 0.4 nM.

Consider `C=CCNC(=O)O[C@H]1C(=O)[C@@]2(C)[C@H]([C@H](OC(=O)c3ccccc3)[C@]3(O)C[C@H](OC(=O)[C@H](O)[C@H](C=C(C)C)NC(=O)OC(C)(C)C)C(C)=C1C3(C)C)[C@]1(OC(C)=O)CO[C@@H]1C[C@@H]2O`, for which the IC50 turned out to be 0.44 nM with A121; 0.35 nM in the assay on A549; 76 nM in the assay on MCF7 [1]; 0.53 nM with HT-29; 0.44 nM in the assay with MCF7 [2].

Regarding `CCNC(=O)O[C@H]1C(=O)[C@@]2(C)[C@H]([C@H](OC(=O)c3ccccc3)[C@]3(O)C[C@H](OC(=O)[C@H](O)[C@H](C=C(C)C)NC(=O)OC(C)(C)C)C(C)=C1C3(C)C)[C@]1(OC(C)=O)CO[C@@H]1C[C@@H]2O`, the IC50 with A121 turned out to be 0.29 nM; in the assay with A549 it was 0.15 nM; in the assay on MCF7 [1], 162 nM; in the assay on HT-29, 0.41 nM; in the assay on MCF7 [2], 0.31 nM.

Consider `C/C=C/C(=O)O[C@H]1C(=O)[C@@]2(C)[C@H]([C@H](OC(=O)c3ccccc3)[C@]3(O)C[C@H](OC(=O)[C@H](O)[C@H](C=C(C)C)NC(=O)OC(C)(C)C)C(C)=C1C3(C)C)[C@]1(OC(C)=O)CO[C@@H]1C[C@@H]2O`, for which the IC50 with A121 came to 0.45 nM; in the assay with A549, 1.7 nM; with MCF7 [1], 3.4 nM; in the assay on HT-29 it was 0.6 nM; in the assay with MCF7 [2], 0.26 nM.

`CC(=O)O[C@@]12CO[C@@H]1C[C@H](O)[C@@]1(C)C(=O)[C@H](OC(=O)NC3CCCCC3)C3=C(C)[C@@H](OC(=O)[C@H](O)[C@H](CC(C)C)NC(=O)OC(C)(C)C)C[C@@](O)([C@@H](OC(=O)c4ccccc4)[C@H]21)C3(C)C`: the IC50 was determined as 5 nM with A121; 3.7 nM in the assay with A549; 33 nM in the assay with MCF7 [1]; 5 nM with HT-29; 1.6 nM with MCF7 [2].

As to `CC(=O)O[C@@]12CO[C@@H]1C[C@H](O)[C@@]1(C)C(=O)[C@H](OC(=O)CC(C)(C)C)C3=C(C)[C@@H](OC(=O)[C@H](O)[C@H](C=C(C)C)NC(=O)OC(C)(C)C)C[C@@](O)([C@@H](OC(=O)c4ccccc4)[C@H]21)C3(C)C`, the IC50 was determined as 0.34 nM in the assay with A121; 0.5 nM in the assay on A549; 10.5 nM with MCF7 [1]; 0.5 nM with HT-29; 0.4 nM with MCF7 [2].

As to `CCN(CC)C(=O)O[C@H]1C(=O)[C@@]2(C)[C@H]([C@H](OC(=O)c3ccccc3)[C@]3(O)C[C@H](OC(=O)[C@H](O)[C@H](C=C(C)C)NC(=O)OC(C)(C)C)C(C)=C1C3(C)C)[C@]1(OC(C)=O)CO[C@@H]1C[C@@H]2O`, the IC50 with A121 stood at 0.17 nM; in the assay with A549 it was 0.2 nM; in the assay with MCF7 [1], 9.1 nM; in the assay with HT-29, 0.4 nM; with MCF7 [2], 0.2 nM.

With `CO[C@H]1C(=O)[C@@]2(C)[C@H]([C@H](OC(=O)c3ccccc3)[C@]3(O)C[C@H](OC(=O)[C@H](O)[C@H](C=C(C)C)NC(=O)OC(C)(C)C)C(C)=C1C3(C)C)[C@]1(OC(C)=O)CO[C@@H]1C[C@@H]2O`, the IC50 in the assay on A121 turned out to be 0.7 nM; in the assay on A549 it was 0.9 nM; in the assay on MCF7 [1] it was 123 nM; in the assay on HT-29, 0.9 nM; in the assay with MCF7 [2], 0.37 nM.

For `CC(=O)O[C@@]12CO[C@@H]1C[C@H](O)[C@@]1(C)C(=O)[C@H](OC(=O)NC(C)C)C3=C(C)[C@@H](OC(=O)[C@H](O)[C@H](C=C(C)C)NC(=O)OC(C)(C)C)C[C@@](O)([C@@H](OC(=O)c4ccccc4)[C@H]21)C3(C)C`, the IC50 in the assay with A121 amounted to 0.34 nM; in the assay with A549 it was 0.36 nM; with MCF7 [1], 65 nM; in the assay with HT-29, 0.52 nM; in the assay on MCF7 [2], 0.46 nM.

`CC(=O)O[C@@]12CO[C@@H]1C[C@H](O)[C@@]1(C)C(=O)[C@H](OC(=O)CC(C)C)C3=C(C)[C@@H](OC(=O)[C@H](O)[C@H](C=C(C)C)NC(=O)OC(C)(C)C)C[C@@](O)([C@@H](OC(=O)c4ccccc4)[C@H]21)C3(C)C`: the concentration for half-maximal inhibition (IC50) in the assay on A121 was determined as 0.6 nM; in the assay with A549, 0.4 nM; with MCF7 [1], 8.5 nM; with HT-29, 0.6 nM; with MCF7 [2], 0.4 nM.

For `CC(=O)O[C@@]12CO[C@@H]1C[C@H](O)[C@@]1(C)C(=O)[C@H](OC(=O)N3CCOCC3)C3=C(C)[C@@H](OC(=O)[C@H](O)[C@H](C=C(C)C)NC(=O)OC(C)(C)C)C[C@@](O)([C@@H](OC(=O)c4ccccc4)[C@H]21)C3(C)C`, the IC50 in the assay with A121 came to 0.09 nM; in the assay on A549, 0.22 nM; with MCF7 [1], 12.5 nM; in the assay with HT-29 it was 0.18 nM; with MCF7 [2], 0.09 nM.

Turning to `COC(=O)O[C@H]1C(=O)[C@@]2(C)[C@H]([C@H](OC(=O)c3ccccc3)[C@]3(O)C[C@H](OC(=O)[C@H](O)[C@H](C=C(C)C)NC(=O)OC(C)(C)C)C(C)=C1C3(C)C)[C@]1(OC(C)=O)CO[C@@H]1C[C@@H]2O`, the IC50 in the assay with A121 turned out to be 0.23 nM; in the assay with A549 it was 0.32 nM; in the assay with MCF7 [1], 5.3 nM; in the assay with HT-29 it was 0.3 nM; with MCF7 [2], 0.14 nM.

Turning to `CC(=O)O[C@H]1C(=O)[C@@]2(C)[C@H]([C@H](OC(=O)c3ccccc3)[C@]3(O)C[C@H](OC(=O)[C@H](O)[C@@H](NC(=O)c4ccccc4)c4ccccc4)C(C)=C1C3(C)C)[C@]1(OC(C)=O)CO[C@@H]1C[C@@H]2O` [PACLITAXEL], the IC50 with A121 turned out to be 6.3 nM.

`CC(=O)O[C@@]12CO[C@@H]1C[C@H](O)[C@@]1(C)C(=O)[C@H](OC(=O)C3CC3)C3=C(C)[C@@H](OC(=O)[C@H](O)[C@H](C=C(C)C)NC(=O)OC(C)(C)C)C[C@@](O)([C@@H](OC(=O)c4ccccc4)[C@H]21)C3(C)C`: the IC50 in the assay with A121 was 0.26 nM; in the assay on A549 it was 0.57 nM; in the assay on MCF7 [1], 2.1 nM; in the assay with HT-29, 0.36 nM; in the assay with MCF7 [2], 0.2 nM.

`CCCCC(=O)O[C@H]1C(=O)[C@@]2(C)[C@H]([C@H](OC(=O)c3ccccc3)[C@]3(O)C[C@H](OC(=O)[C@H](O)[C@H](C=C(C)C)NC(=O)OC(C)(C)C)C(C)=C1C3(C)C)[C@]1(OC(C)=O)CO[C@@H]1C[C@@H]2O`: the IC50 in the assay with A121 was found to be 0.6 nM; in the assay on A549 it was 0.6 nM; with MCF7 [1], 30 nM; in the assay with HT-29, 0.6 nM; in the assay on MCF7 [2], 0.5 nM.

In the case of `CC(=O)O[C@@]12CO[C@@H]1C[C@H](O)[C@@]1(C)C(=O)[C@H](OC(=O)C3CCCCC3)C3=C(C)[C@@H](OC(=O)[C@H](O)[C@H](C=C(C)C)NC(=O)OC(C)(C)C)C[C@@](O)([C@@H](OC(=O)c4ccccc4)[C@H]21)C3(C)C`, the IC50 in the assay on A121 is 0.5 nM; in the assay with A549, 0.75 nM; in the assay with MCF7 [1], 22.3 nM; in the assay with HT-29 it was 1.05 nM; in the assay with MCF7 [2], 0.46 nM.

`CC(=O)O[C@@]12CO[C@@H]1C[C@H](O)[C@@]1(C)C(=O)[C@H](OC(=O)N(C)C)C3=C(C)[C@@H](OC(=O)[C@H](O)[C@H](C=C(C)C)NC(=O)OC(C)(C)C)C[C@@](O)([C@@H](OC(=O)c4ccccc4)[C@H]21)C3(C)C`: the IC50 was determined as 0.3 nM in the assay with A121; 0.6 nM with A549; 4.9 nM in the assay on MCF7 [1]; 0.5 nM with HT-29; 0.13 nM with MCF7 [2].

On to `CCCNC(=O)O[C@H]1C(=O)[C@@]2(C)[C@H]([C@H](OC(=O)c3ccccc3)[C@]3(O)C[C@H](OC(=O)[C@H](O)[C@H](C=C(C)C)NC(=O)OC(C)(C)C)C(C)=C1C3(C)C)[C@]1(OC(C)=O)CO[C@@H]1C[C@@H]2O`, for which the IC50 in the assay with A121 came to 0.34 nM; in the assay on A549, 0.22 nM; in the assay on MCF7 [1] it was 87 nM; in the assay with HT-29, 0.55 nM; in the assay with MCF7 [2], 0.36 nM.

For the molecule `CCC(=O)O[C@H]1C(=O)[C@@]2(C)[C@H]([C@H](OC(=O)c3ccccc3)[C@]3(O)C[C@H](OC(=O)[C@H](O)[C@H](CC(C)C)NC(=O)OC(C)(C)C)C(C)=C1C3(C)C)[C@]1(OC(C)=O)CO[C@@H]1C[C@@H]2O`, the IC50 in the assay on A121 stood at 0.41 nM; in the assay on A549 it was 0.53 nM; with MCF7 [1] it was 2.8 nM; in the assay on HT-29, 0.53 nM; in the assay on MCF7 [2], 0.35 nM.

As to `CO[C@H]1C(=O)[C@@]2(C)[C@H]([C@H](OC(=O)c3ccccc3)[C@]3(O)C[C@H](OC(=O)[C@H](O)[C@H](CC(C)C)NC(=O)OC(C)(C)C)C(C)=C1C3(C)C)[C@]1(OC(C)=O)CO[C@@H]1C[C@@H]2O`, the half-maximal inhibitory concentration (IC50) in the assay with A121 worked out at 0.7 nM; in the assay on A549 it was 0.6 nM; with MCF7 [1], 214 nM; in the assay on HT-29, 0.6 nM; in the assay with MCF7 [2], 0.33 nM.

For `COC(=O)O[C@H]1C(=O)[C@@]2(C)[C@H]([C@H](OC(=O)c3ccccc3)[C@]3(O)C[C@H](OC(=O)[C@H](O)[C@H](CC(C)C)NC(=O)OC(C)(C)C)C(C)=C1C3(C)C)[C@]1(OC(C)=O)CO[C@@H]1C[C@@H]2O`, the IC50 was determined as 0.18 nM in the assay on A121; 0.35 nM with A549; 6.4 nM in the assay on MCF7 [1]; 0.44 nM in the assay with HT-29; 0.28 nM in the assay on MCF7 [2].
